Results as given in ChEMBL document CHEMBL4219265, “Piperlongumine derivative, CG-06, inhibits STAT3 activity by direct binding to STAT3 and regulating the reactive oxygen species in DU145 prostate carcinoma cells” (Bioorg Med Chem Lett, 2018).

Experiments:
[1] = system: DU-145; test: Growth inhibition of human DU145 cells after 48 hrs by WST-1 assay; format: functional; settings: DU-145, 48 h
[2] = system: PC-3; test: Growth inhibition of human PC3 cells after 48 hrs by WST-1 assay; format: functional; settings: PC-3, 48 h
[3] = system: LNCaP; test: Growth inhibition of human LNCAP cells after 48 hrs by WST-1 assay; format: functional
[4] = target: T1, Signal transducer and activator of transcription 3 (Homo sapiens, UniProt P40763); test: Inhibition of STAT3 phosphorylation at Tyr705 residues in human DU145 cells by Western blot analysis; format: cell-based
[5] = target: T1, Signal transducer and activator of transcription 3; test: Inhibition of STAT3 phosphorylation at Tyr705 residues in human DU145 cells after 24 hrs by Western blot analysis; format: cell-based
[6] = target: T1, Signal transducer and activator of transcription 3; test: Inhibition of STAT3 phosphorylation at Tyr705 residues in human DU145 cells assessed as ratio of phosphorylated STAT3 protein level to GAPDH protein level at 1 uM after 24 hrs by Western blot analysis (reference value: 1); format: cell-based
[7] = target: T1, Signal transducer and activator of transcription 3; test: Inhibition of STAT3 phosphorylation at Tyr705 residues in human DU145 cells assessed as ratio of phosphorylated STAT3 protein level to GAPDH protein level at 5 uM after 24 hrs by Western blot analysis (reference value: 1); format: cell-based
[8] = system: DU-145; test: Effect on total STAT3 protein level in human DU145 cells assessed as ratio of STAT3 protein level to GAPDH protein level at 1 uM after 24 hrs by Western blot analysis (reference value: 1); format: ADME, cell-based; settings: du-145, 24 h
[9] = system: DU-145; test: Effect on total STAT3 protein level in human DU145 cells assessed as ratio of STAT3 protein level to GAPDH protein level at 5 uM after 24 hrs by Western blot analysis (reference value: 1); format: ADME, cell-based; settings: du-145, 24 h
[10] = target: T1, Signal transducer and activator of transcription 3; test: Inhibition of STAT3 phosphorylation at Tyr705 residues in human DU145 cells assessed as ratio of phosphorylated STAT3 protein level to GAPDH protein level at 3 uM after 24 hrs by Western blot analysis (reference value: 1); format: cell-based
[11] = target: T1, Signal transducer and activator of transcription 3; test: Inhibition of STAT3 phosphorylation at Tyr705 residues in human DU145 cells assessed as ratio of phosphorylated STAT3 protein level to GAPDH protein level at 7 uM after 24 hrs by Western blot analysis (reference value: 1); format: cell-based
[12] = target: T1, Signal transducer and activator of transcription 3; test: Inhibition of STAT3 phosphorylation at Tyr705 residues in human DU145 cells assessed as ratio of phosphorylated STAT3 protein level to GAPDH protein level at 10 uM after 24 hrs by Western blot analysis (reference value: 1); format: cell-based
[13] = system: DU-145; test: Effect on total STAT3 protein level in human DU145 cells assessed as ratio of STAT3 protein level to GAPDH protein level at 3 uM after 24 hrs by Western blot analysis (reference value: 1); format: ADME, cell-based; settings: du-145, 24 h
[14] = system: DU-145; test: Effect on total STAT3 protein level in human DU145 cells assessed as ratio of STAT3 protein level to GAPDH protein level at 7 uM after 24 hrs by Western blot analysis (reference value: 1); format: ADME, cell-based; settings: du-145, 24 h
[15] = system: DU-145; test: Effect on total STAT3 protein level in human DU145 cells assessed as ratio of STAT3 protein level to GAPDH protein level at 10 uM after 24 hrs by Western blot analysis (reference value: 1); format: ADME, cell-based; settings: du-145, 24 h
[16] = system: PC-3; test: Growth inhibition of human PC3 cells after 24 to 48 hrs by WST-1 assay; format: functional
[17] = system: LNCaP; test: Growth inhibition of human LNCAP cells after 24 to 48 hrs by WST-1 assay; format: functional
[18] = target: T1, Signal transducer and activator of transcription 3; test: Inhibition of STAT3 phosphorylation in human DU145 cells assessed as ratio of phosphorylated STAT3 protein level to GAPDH protein level at […] after 1 hr by Western blot analysis (reference value: 1); format: cell-based
[19] = system: DU-145; test: Effect on total STAT3 protein level in human DU145 cells assessed as ratio of ERK1/2 protein level to GAPDH protein level at 2 mM after 1 hr by Western blot analysis (reference value: 1); format: ADME, cell-based; settings: du-145, 1 h, 2000 µM

T1 sequence (P40763 whole entry): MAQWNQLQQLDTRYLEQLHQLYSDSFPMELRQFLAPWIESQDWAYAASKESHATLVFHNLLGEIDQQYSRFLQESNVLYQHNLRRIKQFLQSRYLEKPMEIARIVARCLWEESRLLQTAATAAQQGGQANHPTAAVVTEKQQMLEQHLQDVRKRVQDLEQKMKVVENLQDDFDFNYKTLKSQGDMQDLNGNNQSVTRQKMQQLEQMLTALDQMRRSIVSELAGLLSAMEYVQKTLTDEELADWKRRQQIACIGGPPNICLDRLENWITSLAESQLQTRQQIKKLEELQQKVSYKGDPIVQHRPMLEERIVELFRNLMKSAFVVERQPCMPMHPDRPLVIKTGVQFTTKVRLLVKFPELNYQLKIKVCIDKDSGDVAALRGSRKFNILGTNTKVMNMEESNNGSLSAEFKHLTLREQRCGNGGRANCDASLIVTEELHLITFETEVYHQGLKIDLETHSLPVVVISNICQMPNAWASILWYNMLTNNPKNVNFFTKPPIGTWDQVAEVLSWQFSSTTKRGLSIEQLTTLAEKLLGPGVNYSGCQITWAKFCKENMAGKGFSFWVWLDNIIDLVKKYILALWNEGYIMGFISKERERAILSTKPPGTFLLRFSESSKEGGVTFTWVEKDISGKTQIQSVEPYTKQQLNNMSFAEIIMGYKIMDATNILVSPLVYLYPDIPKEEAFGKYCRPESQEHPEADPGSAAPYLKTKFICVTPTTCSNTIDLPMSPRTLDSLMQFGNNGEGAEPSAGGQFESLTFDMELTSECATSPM

Structure (SMILES) | GI50 [1] | GI50 [2] | GI50 [3] | other results
C=C(C)C(=O)NC(=O)/C=C/c1cc(OC)c(OC)c(OC)c1 | 8.6 µM | 8.2 µM | 10 µM | 
COc1cc(/C=C/C(=O)N2CCC=CC2=O)cc(OC)c1OC [PIPLARTINE] | 7.1 µM | > 10 µM | 9.2 µM | inhibition [4]: Dose-dependent effect; IC50 [5]: 7 µM; Ratio [6]: 0.8; Ratio [7]: 0.7; Ratio [8]: 1; Ratio [9]: 1; Ratio [10]: 0.7; Ratio [11]: 0.5; Ratio [12]: 0.3; Ratio [13]: 1.1; Ratio [14]: 1; Ratio [15]: 0.9; GI50 [16]: > 10 µM; GI50 [17]: > 10 µM
CC(=O)N[C@@H](CS)C(=O)O [ACETYLCYSTEINE] |  |  |  | Ratio [18]: 1; Ratio [19]: 0.8

The remaining molecules from weak to strong by GI50 [1], led by results:

GI50 [1] | GI50 [2] | GI50 [3] | Structure (SMILES) | other results
5.7 µM | > 10 µM | 10 µM | C=C(C)C(=O)N(Cc1cccc(Br)c1)C(=O)/C=C/c1cc(OC)c(OC)c(OC)c1 | 
5.6 µM | > 10 µM | > 10 µM | C=C(C)C(=O)N(C)C(=O)/C=C/c1cc(OC)c(OC)c(OC)c1 | 
4.2 µM | > 10 µM | 10 µM | C=C(C)C(=O)N(Cc1ccccc1C)C(=O)/C=C/c1cc(OC)c(OC)c(OC)c1 | 
2.3 µM | 7.3 µM | > 10 µM | C#CCN(C(=O)/C=C/c1cc(OC)c(OC)c(OC)c1)C(=O)C(=C)C | 
